Patent US11912785B2, “Peptide compositions for slowing degradation of vitamin mineral supplements, foods, pharmaceutical and cosmetics” (priority 2017, dated 2024)
No end group written: not given here.

How the values were obtained:
[1] = USP type 2 dissolution of Product #1a with peptide in the medium; settings: for ascorbic acid recovered / maintained (in words): 0.25 mM, 45 min
Description: (§1) The dissolution studies described herein used a U.S. Pharmacopeia (USP) type 2 apparatus with 500 ml distilled H2O at 37° C. stirred at 50 RPM. […] Oxygen concentration was monitored with a Clarke electrode calibrated against argon and air sparged water at 37 C. The disappearance of several components was gauged against a mixture of pure standards of known concentration.
Product #1a also contained caffeine.

[2] = 3 mM peptide, 3 mM ferrous chloride, 40 mM MES pH 6.2
Description: (§2) Aqueous solutions of air saturated buffer, peptide, one or more vitamins, and metal salt (e.g. ferrous chloride or cupric sulfate) were combined and incubated at 37 C, unless otherwise stated. Samples were injected into the HPLC system as a function of time and monitored by a photodiode array detector.

[3] = product #2; 1 mM peptide
Description: as §1

[4] = Decay of 5-MTHF in HEPES pH 7.2 with cupric sulfate and peptide; type: physicochemical; settings: for half-life of 5-MTHF: 150 μM cupric sulfate
Description: as §2

[5] = Effect of cupric sulfate on folic acid plus sodium ascorbate in various buffers; settings: for initial ascorbate lost after 2 hours: 10 mM HEPES pH 7.2, 150 μM cupric sulfate
Description: as §2
Reactions were continuously but slow sparged with air so that oxygen would not become limiting.

[6] = Water uptake and handling of peptide salts on exposure to atmosphere or humidity; type: physicochemical; settings: for handling state after exposure to the atmosphere / weight gain (water) when left open to the atmosphere: ambient
Description: One such matrix is microcrystalline cellulose which is commonly used as an excipient in vitamin and mineral products. A method of combining the peptide salt with the excipient was also developed in which the former is dissolved in a suitable solvent, for example water, the excipient added with stirring, and removing the solvent from the mixture, for example by rotary evaporation under reduced pressure or lyophilization.
The resulting material was crushed to pass through a 200 mesh sieve.
The precipitate was resuspended in 0.5 ml ice-cold water, centrifuged again, and the second supernate discarded.
The precipitate was resuspended in 0.5 ml ice-cold water, recentrifuged, and the second supernate discarded. […] This was centrifuged and dried under high vacuum over P2O5.

[7] = Effect of cupric sulfate on vitamin B12, thiamine, folic acid and sodium ascorbate in MES pH 6.2; type: physicochemical; settings: 3 mM peptide; 10 mM MES pH 6.2, 150 μM cupric sulfate
Description: In the presence of 3 mM 1,1,1-triaspartate (as the tetra-sodium salt) the loss of Vitamin B12 was limited to about 20% even after 2 hours. Thiamine also rapidly disappeared by 40% over the first 26 minutes and then remained constant in the absence of an aspartate peptide. However, with 3 mM Asp-Asp-Asp included only 8% was lost at 36 min.

[8] = Decomposition of 5-MTHF in 1 mM HCl with cupric sulfate; type: physicochemical; settings: 3 mM peptide, 150 μM cupric sulfate, 37 C
Description: The decomposition of 5-MTHF is slower in acidic solutions than at neutral pH, and this was found even in the presence of cupric ions. […] With 3 mM 1,1,1-triaspartic free acid also present the time to half decomposition was increased to around 30 minutes.

[9] = USP type 2 dissolution of Product #1b with copper added as CuSO4 and peptide; type: physicochemical
Description: as §1

[10] = Decay of sodium ascorbate in HEPES pH 7.2 with 63 μM cupric sulfate; type: physicochemical
Description: Example 11 The effect of 1,1,1-Ala-Asp-Asp on the decay of sodium ascorbate in 10 mM HEPES pH 7.2 at 37 was compared with 1,1,1-triaspartate in the presence of 63 μM cupric sulfate (equivalent to 2 mg of elemental copper per 500 mL). […] This difference is somewhat offset by the ˜12% lower molecular weight of the former.

[11] = 2 mM peptide, 25 μM 5-MTHF, 10 mM HEPES pH 7.2, 37 C
[12] = 3 mM peptide, 50 mM MES pH 5.5, 150 μM cupric sulfate

N-acetyl-1,1,1-triaspartic acid [reference compound]
ability to inhibit oxidative destruction of other multivitamin components ([1]; test conditions not stated): lack of effectiveness

Asp-Asp-Asp tetrasodium salt [tetra-sodium 1,1,1-triaspartate, Tetra-sodium-1,1,1-triaspartate]
time without significant loss of 5-MTHF [2]: about 50 minutes | decrease of 5-MTHF thereafter ([2]; after about 50 minutes): about 17 % per hour | ascorbic acid recovered after 45 min, higher than with water only ([1]; Product #1a, 0.125 mmole peptide in 500 mL (0.25 mM), initial pH ~6.5, 37° C.): about 16 fold | oxygen remaining after 45 min, part of the original concentration ([1]; Product #1a, 0.25 mM peptide): about a third | rate of oxygen consumption compared with no peptide ([1]; Product #1a, 0.25 mM peptide): dramatically decreased | increase of average recovery of ascorbic acid at 45 minutes over no peptide [3]: 16% | increase of average recovery of thiamine at 45 minutes over no added peptide [3]: 20% | half-life of 5-MTHF [4, 11]: 3.3 h | initial ascorbate lost after 2 hours ([5]; 1 mM peptide): 33% | initial ascorbate lost after 2 hours ([5]; 3 mM peptide): 18% | ascorbate remaining by 32 minutes ([5]; 3 mM peptide, 10 mM MES pH 6.2, 150 μM cupric sulfate, air sparged): 35% | handling state after exposure to the atmosphere ([6]; open to the atmosphere): became sticky | weight gain (water) when left open to the atmosphere ([6]; open to the atmosphere): 14% | loss of Vitamin B12 after 2 hours [7]: about 20%

Calcium1.5-1,1,1-triaspartate [Example D]
handling state after 24 hours at 90% RH ([6]; 90% RH, 24 hours): clumped slightly, but was easy to break up and was not sticky | handling state after exposure to the atmosphere ([6]; open to the atmosphere): remained free flowing flakes that were never sticky | weight gain (water) when left open to the atmosphere ([6]; open to the atmosphere): ~10%

Asp-Asp-Asp
extent of caffeine oxidation to 1,3,7-trimethyluric acid compared with no peptide ([1]; Product #1a, 0.25 mM peptide): more than halved | folic acid in filtrate, of the labeled amount, 10 minute sample ([1]; Product #1a, 0.25 mM peptide): about 55% | folic acid in filtrate, of the labeled amount, 45 minute sample ([1]; Product #1a, 0.25 mM peptide): about 70% | p-aminobenzoyl-glutamate in the final sonicated sample compared with absence of peptide ([1]; Product #1a, 0.25 mM peptide): decreased to half | thiamine present at 45 minutes, of labeled content ([1]; Product #1a, 0.25 mM peptide): 104% | thiamine present at 45 minutes, of the actual content of the tablets ([1]; Product #1a, 0.25 mM peptide): 83% | half-life of 5-MTHF (in words) ([4]; 0.5 mM peptide): longer than Asp2 | folic acid recovered after 82 minutes [5, 12]: more than 50% | time until ascorbate completely consumed [5, 12]: 47 min | time to half decomposition of 5-MTHF [8]: around 30 minutes | concentration required for half maximal effect in preventing loss of ascorbate ([9]; 1 mg of copper added as CuSO4, compared with 2 mg): somewhat lower concentration | EC50 ([9]; copper added as CuSO4, peptide 0.05 to 0.5 mM, hyperbolic fit, read-out: concentration required for 50% of maximal effectiveness in preventing ascorbate loss): ~50 µM | thiamine lost at 36 min [7]: 8%

N[C@@H](CC(=O)O)C(=O)O [aspartic acid, reference compound]
rate of oxygen consumption compared with no peptide ([1]; Product #1a, 0.25 mM peptide): no improvement | ascorbic acid recovered / maintained (in words) ([1]; Product #1a): no improvement

tri-sodium 1,1,1-His-Asp-Asp [reference compound]
maintenance of ascorbate or thiamine, diminishing oxygen consumption, or oxidation of other components ([1]; Product #1a, 0.25 mM peptide, pH ~6.5): No improvement

Ferrous 1,1,1-triaspartate [Example P]
color / oxidation when open to air via a drying tube ([6]; open to air via a drying tube): did not change color or significantly oxidize | weight gain (water) when left open to the atmosphere ([6]; open to the atmosphere): 13% | color / oxidation when kept open to the atmosphere ([6]; open to the atmosphere, several days): became dark brown due to partial oxidation to iron(III)

tri-sodium 1,1-diaspartate
profile of folic acid appearance in solution ([1]; Product #1a, 0.25 mM peptide): greater than without any peptide, and similar to that liberated by 0.05 mM Asp-Asp-Asp | profile of p-aminobenzoyl-glutamate formation ([1]; Product #1a, 0.25 mM peptide): suppressed in comparison to without any peptide, and similar to 0.05 mM Asp-Asp-Asp | profile of thiamine appearance in solution ([1]; Product #1a, 0.25 mM peptide): not significantly different than without peptide | rate of oxygen consumption compared with no peptide ([1]; Product #1a, 0.25 mM peptide): less than without a peptide | ascorbic acid recovered / maintained (in words) ([1]; Product #1a): greater than with no Asp2 but somewhat less than in the presence of 0.25 mM Asp-Asp-Asp | half-life of 5-MTHF [4, 11]: 1.2 h | half-life of 5-MTHF ([4]; 3 mM peptide, HEPES pH 7.2, 37 C): 1.45 h | half-life of 5-MTHF ([4]; 4 mM peptide, HEPES pH 7.2, 37 C): 1.67 h

1,1,1-Ala-Asp-Asp
effectiveness compared with triaspartic acid on a molar basis [10]: about half as effective | 1st-order rate of ascorbate loss compared with Asp-Asp-Asp ([10]; 0.25 mM peptide, 63 μM cupric sulfate, 10 mM HEPES pH 7.2, 37): almost twice as fast

penta-sodium 1,1,1,1-tetraaspartate (DDDD; also: penta-sodium salt)
effectiveness compared with triaspartic acid on a molar basis [4]: just as effective on a molar basis | half-life of 5-MTHF [4, 11]: 2.97 h
